Measured values as given in patent US9115133B2, “Substituted fused tricyclic compounds, compositions and medicinal applications thereof” (Advinus Therapeutics Limited, priority 2011, dated 2015).
pIC50: −log10 of the molar value.

Experiments:
Assay type in all cases: biochemical
Details in all cases: 200 μg/ml Poly Glu-Tyr (4:1), ATP 1 uM, 90 min room temperature, luminescence
[1] = target: T1, Recombinant JAK1 (Amino acids 850-1154) (Homo sapiens, UniProt P23458); test: Kinase-Glo Luminescent Kinase Assay, recombinant JAK1
T1 construct: Recombinant JAK1 (Amino acids 850-1154; NM_002227.2); made in house; host or cells: baculovirus expression system (Bac-to-Bac)
T1 sequence (P23458 850-1154): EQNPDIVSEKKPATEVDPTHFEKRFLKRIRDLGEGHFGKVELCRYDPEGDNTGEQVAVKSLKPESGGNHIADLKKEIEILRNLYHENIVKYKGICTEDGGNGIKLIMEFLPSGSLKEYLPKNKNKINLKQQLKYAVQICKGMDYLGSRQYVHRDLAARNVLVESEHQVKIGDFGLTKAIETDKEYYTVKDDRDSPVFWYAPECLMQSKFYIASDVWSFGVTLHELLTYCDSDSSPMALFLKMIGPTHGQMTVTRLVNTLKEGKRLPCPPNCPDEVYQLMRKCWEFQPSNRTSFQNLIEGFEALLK
Procedure, shortened: (§1)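 Baculovirus-expressed kinase domains were pre-incubated 5 min with compound (1% DMSO), then reacted 90 min at room temperature with 200 μg/ml poly Glu-Tyr (4:1) and 1 uM ATP in 50 mM HEPES pH 7.4, 5 mM MgCl2. Remaining ATP was read by Kinase-Glo luminescence. IC50 came from four-parameter logistic fits.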

[2] = target: T2, Recombinant JAK2 (Amino acids 808-1132) (Homo sapiens, UniProt O60674); test: Kinase-Glo Luminescent Kinase Assay, recombinant JAK2
T2 construct: JAK2 (Amino acids 808-1132; NM_004972.3); made in house; host or cells: baculovirus expression system (Bac-to-Bac)
T2 sequence (O60674 808-1132): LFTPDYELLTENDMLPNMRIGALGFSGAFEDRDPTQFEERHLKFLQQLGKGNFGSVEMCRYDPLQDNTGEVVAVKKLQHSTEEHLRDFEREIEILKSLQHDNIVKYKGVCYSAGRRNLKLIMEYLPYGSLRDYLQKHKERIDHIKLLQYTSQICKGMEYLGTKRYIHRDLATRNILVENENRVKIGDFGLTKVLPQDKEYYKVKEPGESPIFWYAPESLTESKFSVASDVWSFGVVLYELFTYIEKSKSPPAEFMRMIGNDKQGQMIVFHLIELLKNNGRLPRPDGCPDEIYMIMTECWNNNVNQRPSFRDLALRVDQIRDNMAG
Procedure, shortened: as §1

[3] = target: T3, Recombinant JAK3 (Amino acids 781-1124) (Homo sapiens, UniProt P52333); test: Kinase-Glo Luminescent Kinase Assay, recombinant JAK3
T3 construct: JAK3 (Amino acids 781-1124; NM_000215.3); made in house; host or cells: baculovirus expression system (Bac-to-Bac)
T3 sequence (P52333 781-1124): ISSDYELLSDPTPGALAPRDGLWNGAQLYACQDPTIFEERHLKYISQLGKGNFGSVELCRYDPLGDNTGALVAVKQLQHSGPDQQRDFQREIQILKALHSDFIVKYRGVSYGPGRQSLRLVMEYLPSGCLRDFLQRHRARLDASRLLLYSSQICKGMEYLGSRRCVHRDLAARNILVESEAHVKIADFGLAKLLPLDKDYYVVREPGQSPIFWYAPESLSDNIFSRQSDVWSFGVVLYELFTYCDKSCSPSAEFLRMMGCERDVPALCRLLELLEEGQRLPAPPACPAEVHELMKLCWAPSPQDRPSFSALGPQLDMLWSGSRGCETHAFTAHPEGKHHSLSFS
Procedure, shortened: as §1

pIC50 [1]	pIC50 [2]	pIC50 [3]	SMILES
7.70 to 9.00	7.70 to 9.00	7.70 to 9.00	O=C(NCC(F)(F)F)C1CCCN(c2ccnc3cnc4[nH]ccc4c23)C1 (stereo not drawn) [Ex. 83, 1-(3H-pyrrolo[3,2-f][1,7]naphthyridin-9-yl)-N-(2,2,2-trifluoroethyl)piperidine-3-carboxamide]
7.70 to 9.00	7.70 to 9.00	7.70 to 9.00	CN(C)C(=O)N1CCCC(c2ccnc3cnc4[nH]ccc4c23)C1 (stereo not drawn) [Ex. 47, N,N-dimethyl-3-(3H-pyrrolo[3,2-f][1,7]naphthyridin-9-yl)piperidine-1-carboxamide]
7.70 to 9.00	< 7.70	< 7.70	O=C(CC1CC1)N1CCCC(c2ncnc3cnc4[nH]ccc4c23)C1 (stereo not drawn) [Ex. 25, 2-Cyclopropyl-1-[3-(3H-3,4,6,8-tetraazacyclopenta[a]naphthalen-9-yl)-piperidin-1-yl]-ethanone]
7.70 to 9.00	< 7.70	< 7.70	CC(C)(C)OC(=O)N1CCCC(c2ncnc3cnc4[nH]ccc4c23)C1 (stereo not drawn) [Comp. 55, 3-(3H-3,4,6,8-Tetraaza-cyclopenta[a]naphthalen-9-yl)-piperidine-1-carboxylic acid tert-butyl ester]
